Measurements taken from the CheMixHub viscosity set.

Experiment: xn = mol fraction of the nth substance listed

C1CC[NH2+]C1.CCCCCCCC(=O)[O-] + CC#N
viscosity [mPa·s], 101 kPa
Conditions | x1 = 0.1601 | x1 = 0.2228 | x1 = 0.2843 | x1 = 0.3982 | x1 = 0.4849 | x1 = 0.609 | x1 = 0.6946 | x1 = 0.7891 | x1 = 0.9081
293.15 K | 5.42 | 6.71 | 7.22 | 11.37 | 13.54 | 18.24 | 24.41 | 33.6 | 51.93
298.15 K | 4.61 | 6.42 | 7.9 | 9.98 | 12.08 | 16.32 | 22.17 | 30.5 | 44.73
303.15 K | 3.37 | 3.58 | 5.31 | 8.14 | 9.96 | 14.01 | 17.35 | 24.21 | 35.95
308.15 K | 2.41 | 3.39 | 5.02 | 7.88 | 9.48 | 13.07 | 15.79 | 21.95 | 30.54
313.15 K | 1.92 | 2.99 | 4.35 | 6.59 | 8.46 | 10.7 | 14.2 | 18.22 | 25.69

CCC(C)O (configuration not stated) + CC#N
Conditions | viscosity [mPa·s]
293.15 K, 101 kPa, x2 = 0.1644 | 1.655

CCCCn1cc[n+](C)c1.F[B-](F)(F)F + CC#N
Conditions | viscosity [mPa·s]
298.15 K, 101 kPa, x2 = 0.0956 | 79.7

Cc1ccc(O)cc1 + CC(=O)O
viscosity [mPa·s], 101 kPa
Conditions | x2 = 0.1682 | x2 = 0.3128 | x2 = 0.4383 | x2 = 0.5483 | x2 = 0.6454 | x2 = 0.732 | x2 = 0.8094 | x2 = 0.8792 | x2 = 0.9425
298.15 K | 9.47 | 6.803 | 5.096 | 3.918 | 3.086 | 2.477 | 2.038 | 1.664 | 1.385
308.15 K | 5.756 | 4.488 | 3.585 | 2.902 | 2.385 | 1.99 | 1.674 | 1.4 | 1.18
318.15 K | 4.584 | 3.69 | 3.009 | 2.473 | 2.051 | 1.72 | 1.447 | 1.215 | 1.004

Cc1ccccc1N + CC(=O)O
viscosity [mPa·s], 100 kPa
Conditions | x1 = 0.1051 | x1 = 0.1945 | x1 = 0.2862 | x1 = 0.3854 | x1 = 0.4952 | x1 = 0.5994 | x1 = 0.6874 | x1 = 0.7658 | x1 = 0.8879
303.15 K | 1.3 | 1.51 | 1.73 | 1.96 | 2.2 | 2.43 | 2.62 | 2.79 | 3.04
308.15 K | 1.2 | 1.38 | 1.56 | 1.75 | 1.96 | 2.15 | 2.31 | 2.44 | 2.65
313.15 K | 1.11 | 1.27 | 1.42 | 1.59 | 1.76 | 1.93 | 2.06 | 2.17 | 2.34
318.15 K | 1.02 | 1.15 | 1.28 | 1.42 | 1.57 | 1.7 | 1.81 | 1.91 | 2.04

Cc1ccc(O)cc1 + CC(=O)c1ccccc1
303.15 K, 101 kPa
Conditions | viscosity [mPa·s]
x2 = 0.1137 | 10.7
x2 = 0.1526 | 10.25
x2 = 0.3364 | 8.205
x2 = 0.426 | 7.246
x2 = 0.4932 | 6.538
x2 = 0.5636 | 5.804
x2 = 0.758 | 3.823
x2 = 0.8099 | 3.31
x2 = 0.9433 | 2.026

Cc1cccc(C)c1 + CC(C)(C)O
308.15 K, 101 kPa
Conditions | viscosity [mPa·s]
x2 = 0.0642 | 0.542
x2 = 0.1265 | 0.59
x2 = 0.2068 | 0.633
x2 = 0.3029 | 0.667
x2 = 0.3766 | 0.72
x2 = 0.4301 | 0.756
x2 = 0.4992 | 0.793
x2 = 0.5983 | 0.909
x2 = 0.6924 | 1.013
x2 = 0.7966 | 1.296
x2 = 0.908 | 1.731

Nc1ccccc1Cl + CC(C)(C)O
viscosity [mPa·s], 101 kPa
Conditions | x1 = 0.0902 | x1 = 0.1802 | x1 = 0.3025 | x1 = 0.4125 | x1 = 0.5089 | x1 = 0.6158 | x1 = 0.7025 | x1 = 0.8054 | x1 = 0.9005
303.15 K | 3.13 | 3.28 | 3.44 | 3.57 | 3.66 | 3.73 | 3.78 | 3.82 | 3.84
308.15 K | 2.89 | 3.03 | 3.16 | 3.26 | 3.33 | 3.39 | 3.43 | 3.46 | 3.46
313.15 K | 2.36 | 2.52 | 2.68 | 2.79 | 2.88 | 2.98 | 3.03 | 3.09 | 3.11
318.15 K | 1.97 | 2.13 | 2.3 | 2.42 | 2.52 | 2.62 | 2.7 | 2.77 | 2.8

O=S1(=O)CCCC1 + CC(C)(C)O
viscosity [mPa·s], 101 kPa
Conditions | x1 = 0.1916 | x1 = 0.2786 | x1 = 0.3584 | x1 = 0.4717 | x1 = 0.5569 | x1 = 0.6312 | x1 = 0.732 | x1 = 0.8339 | x1 = 0.9188
303.15 K | 2.995 | 3.12 | 3.325 | 3.712 | 4.135 | 4.595 | 5.495 | 6.747 | 8.277
308.15 K | 2.513 | 2.644 | 2.844 | 3.213 | 3.602 | 4.022 | 4.832 | 5.938 | 7.276
313.15 K | 2.121 | 2.266 | 2.467 | 2.806 | 3.169 | 3.553 | 4.285 | 5.264 | 6.424

Cc1cccc(C)c1 + CC(C)CC(C)(C)C
308.15 K, 101 kPa
Conditions | viscosity [mPa·s]
x2 = 0.0651 | 0.5188
x2 = 0.1364 | 0.5018
x2 = 0.2067 | 0.4888
x2 = 0.3021 | 0.4746
x2 = 0.392 | 0.462
x2 = 0.4939 | 0.4518
x2 = 0.6007 | 0.4435
x2 = 0.7283 | 0.4385
x2 = 0.859 | 0.4352

BrC1CCCCC1 + CC(C)CO
viscosity [mPa·s], 101.33 kPa
Conditions | x1 = 0.0998 | x1 = 0.2024 | x1 = 0.3028 | x1 = 0.3991 | x1 = 0.4983 | x1 = 0.5946 | x1 = 0.7011 | x1 = 0.8014 | x1 = 0.9015
298.15 K | 2.871 | 2.496 | 2.252 | 2.095 | 1.981 | 1.915 | 1.878 | 1.877 | 1.915
313.15 K | 1.846 | 1.656 | 1.539 | 1.47 | 1.42 | 1.401 | 1.399 | 1.419 | 1.465

NCCCO + CC(C)CO
293.15 K, 101 kPa
Conditions | viscosity [mPa·s]
x1 = 0.501 | 13.95
x1 = 0.7008 | 21.85
